Key:
Format in all cases: biochemical
Lyn = Lyn (Homo sapiens, UniProt P07948); assay: Lyn kinase inhibition
Btk = target: T1, Btk (Homo sapiens, UniProt Q06187); assay: Btk in vitro inhibitory activity (one of Methods A, B, C); details: determined in one of three in vitro assays (Examples 125-127)
T1 construct: purified from insect cells as a full-length construct containing a N-terminal 6×-His tag; 6xHis (N); host or cells: insect cells (baculovirus Sf21 in Method B)
Experimental: The Btk IC50s of compounds disclosed herein was determined in one of the three in vitro assays described in Examples 125-127.
(§1) Btk kinase activity was determined using a time-resolved fluorescence resonance energy transfer (TR-FRET) methodology. Measurements were performed in a reaction volume of 50 μL using 96-well assay plates. […] The reaction was quenched by the addition of 1.2 equivalents of EDTA (relative to divalent cation) in 25 μL of 1× Lance buffer (Perkin-Elmer). Streptavidin-APC (Perkin-Elmer) and Eu-labeled p-Tyr100 antibody (Perkin-Elmer) in 1× Lance buffer were added in a 25 μL volume to give final concentrations of 100 nM and 2.5 nM, respectively, and the mixture was allowed to incubate for one hour. The TR-FRET signal was measured on a multimode plate reader with an excitation wavelength (λEx) of 330 nm and detection wavelengths (λEm) of 615 and 665 nm. Activity was determined by the ratio of the fluorescence at 665 nm to that at 615 nm. For each compound, enzyme activity was measured at various concentrations of compound. Negative control reactions were performed in the absence of inhibitor in replicates of six, and two no-enzyme controls were used to determine baseline fluorescence levels Inhibition constants, Ki(app), were obtained using the program BatchKi (Kuzmic et al. (2000), Anal. Biochem. 286:45-50). IC50s were obtained according to the equation: IC50={Ki(app)/(1+[ATP]/Km^ATP)}+[E]total/2; For all kinases, [ATP]=Km^ATP, [Btk]total=0.5 nM and [Lck]total=6 nM.
Kinase activity is measured in vitro using electrophoretic mobility shift assay. The kinase reactions are assembled in a total volume of 25 μL in 384 well plates. […] The reaction is incubated for one hour and is quenched by the addition of 45 μL of termination buffer (100 mM HEPES, pH7.5, 0.01% Triton X-100, 30 mM EDTA). The terminated reactions are analyzed using 12 channel LabChip® 3000 microfluidic detection instrument (Caliper Life Sciences). The enzymatic phosphorylation of the peptide results in a change in net charge, enabling electrophoretic separation of product from substrate peptide. As substrate and product peptides are separated, two peaks of fluorescence are observed. Change in the relative fluorescence intensity of the substrate and product peaks is the parameter measured, reflecting enzyme activity. In the presence of an inhibitor, the ratio between product and substrate is altered: the signal of the product decreases, while the signal of the substrate increases.
Activity in each sample is determined as the product to sum ratio (PSR): P/(S+P), where P is the peak height of the product peptide and S is the peak height of the substrate peptide. For each compound, enzyme activity is measured at various concentrations (12 concentrations of compound spaced by 3× dilution intervals). Negative control samples (0%-inhibition in the absence of inhibitor) and positive control samples (100%-inhibition, in the presence of 20 mM EDTA) are assembled in replicates of four and are used to calculate %-inhibition values for each inhibitor at each concentration. Percent inhibition (Pinh) is determined using following equation: Pinh=(PSR0%−PSRinh)/(PSR0%−PSR100%)*100, where PSRinh is the product sum ratio in the presence of inhibitor, PSR0% is the average product sum ration in the absence of inhibitor and PSR100% is the average product sum ratio in 100%-inhibition control samples;
The IC50 values of inhibitors are determined by 4 parameter sigmoidal dose-response model fitting of the inhibition curves (Pinh versus inhibitor concentration) using XLfit 4 software.
Human Btk kinase (Genbank accession # NP_000052) was purified from insect cells as a full-length construct containing a N-terminal 6×-His tag. Btk kinase activity was determined using a radiometric filter binding assay. Measurements are performed in a low reaction volume 384-well assay plates. […]

Lck = Lck (Homo sapiens, UniProt P06239); assay: Lck kinase inhibition
Experimental: as §1

C-src = C-src (Homo sapiens, UniProt P12931); assay: C-src kinase inhibition
Experimental: as §1

T1 sequence (Q06187 whole entry): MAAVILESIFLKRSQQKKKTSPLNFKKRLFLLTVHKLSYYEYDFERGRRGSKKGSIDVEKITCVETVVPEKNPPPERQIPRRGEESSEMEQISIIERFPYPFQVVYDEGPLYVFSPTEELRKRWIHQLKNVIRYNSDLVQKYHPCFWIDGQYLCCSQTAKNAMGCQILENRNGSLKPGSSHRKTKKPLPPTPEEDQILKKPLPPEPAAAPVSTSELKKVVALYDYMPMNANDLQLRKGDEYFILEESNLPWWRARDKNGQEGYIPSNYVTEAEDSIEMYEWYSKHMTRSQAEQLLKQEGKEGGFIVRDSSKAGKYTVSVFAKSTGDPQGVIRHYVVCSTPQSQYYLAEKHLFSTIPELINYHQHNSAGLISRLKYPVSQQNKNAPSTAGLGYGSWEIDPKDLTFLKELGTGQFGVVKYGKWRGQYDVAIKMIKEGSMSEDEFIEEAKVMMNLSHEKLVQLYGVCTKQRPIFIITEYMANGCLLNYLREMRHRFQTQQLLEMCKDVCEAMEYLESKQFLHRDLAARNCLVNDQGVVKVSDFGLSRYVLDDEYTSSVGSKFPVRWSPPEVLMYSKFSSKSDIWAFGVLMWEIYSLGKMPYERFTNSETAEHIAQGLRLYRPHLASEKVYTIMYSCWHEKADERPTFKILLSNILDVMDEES
Chain of C-src (P12931 whole entry): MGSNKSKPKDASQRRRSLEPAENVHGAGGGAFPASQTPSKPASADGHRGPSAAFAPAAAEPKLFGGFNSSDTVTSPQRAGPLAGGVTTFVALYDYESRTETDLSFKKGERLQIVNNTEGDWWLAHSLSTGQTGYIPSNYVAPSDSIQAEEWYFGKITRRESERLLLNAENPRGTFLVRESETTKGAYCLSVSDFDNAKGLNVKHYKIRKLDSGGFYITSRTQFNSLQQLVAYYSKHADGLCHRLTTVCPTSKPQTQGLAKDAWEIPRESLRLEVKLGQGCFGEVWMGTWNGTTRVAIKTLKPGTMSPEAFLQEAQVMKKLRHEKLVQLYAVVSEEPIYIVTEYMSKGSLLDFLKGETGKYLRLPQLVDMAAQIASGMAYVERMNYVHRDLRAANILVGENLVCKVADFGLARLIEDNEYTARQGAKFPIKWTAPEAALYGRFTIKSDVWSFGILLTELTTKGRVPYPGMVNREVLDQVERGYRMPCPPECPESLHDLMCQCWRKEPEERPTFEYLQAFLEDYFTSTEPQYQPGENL
Chain of Lck (P06239 whole entry): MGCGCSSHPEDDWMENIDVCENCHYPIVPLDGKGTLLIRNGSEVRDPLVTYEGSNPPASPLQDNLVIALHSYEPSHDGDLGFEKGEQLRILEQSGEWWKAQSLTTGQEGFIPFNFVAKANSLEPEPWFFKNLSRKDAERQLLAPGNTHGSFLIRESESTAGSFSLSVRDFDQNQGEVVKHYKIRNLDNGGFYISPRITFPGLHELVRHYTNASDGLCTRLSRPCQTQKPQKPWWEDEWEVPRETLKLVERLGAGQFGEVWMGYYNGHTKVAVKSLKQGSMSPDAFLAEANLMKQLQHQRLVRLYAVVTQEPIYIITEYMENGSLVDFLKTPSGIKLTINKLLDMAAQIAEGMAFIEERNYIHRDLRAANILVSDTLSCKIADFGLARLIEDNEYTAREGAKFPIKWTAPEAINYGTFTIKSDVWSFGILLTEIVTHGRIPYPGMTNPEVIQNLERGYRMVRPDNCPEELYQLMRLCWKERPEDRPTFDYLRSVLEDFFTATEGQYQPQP
Chain of Lyn (P07948 whole entry): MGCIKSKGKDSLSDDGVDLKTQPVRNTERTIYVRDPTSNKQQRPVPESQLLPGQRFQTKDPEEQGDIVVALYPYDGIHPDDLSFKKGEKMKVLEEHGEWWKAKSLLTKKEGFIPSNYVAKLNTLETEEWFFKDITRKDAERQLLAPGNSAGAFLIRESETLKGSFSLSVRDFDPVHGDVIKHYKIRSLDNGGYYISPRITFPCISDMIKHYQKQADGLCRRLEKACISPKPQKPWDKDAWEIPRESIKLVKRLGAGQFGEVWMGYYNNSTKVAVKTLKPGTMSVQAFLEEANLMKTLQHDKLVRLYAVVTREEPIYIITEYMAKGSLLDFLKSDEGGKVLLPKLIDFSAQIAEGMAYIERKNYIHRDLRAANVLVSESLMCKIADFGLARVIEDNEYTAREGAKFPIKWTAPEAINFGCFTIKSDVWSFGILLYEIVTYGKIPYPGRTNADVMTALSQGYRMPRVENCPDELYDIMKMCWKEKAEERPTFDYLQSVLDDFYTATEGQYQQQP

Row | IC50 (Btk) [nM] | SMILES | also measured
1 | < 100 | C=CC(=O)Nc1ccc(-n2nc(-c3ccc(Cl)c(Cl)c3)c3c(N)ncnc32)cc1 [Example 20, N-(4-(4-amino-3-(3,4-dichlorophenyl)-1H-pyrazolo[3,4-d]pyrimidin-1-yl)phenyl)acrylamide] | IC50 (Lyn): 100 to 1000 nM; IC50 (Lck): 100 to 1000 nM; IC50 (C-src): < 100 nM
2 | < 100 | COc1cc(-c2nn(-c3cccc(N(C)C(=O)/C=C/CN(C)C)n3)c3ncnc(N)c23)ccc1C [Example 30] | –
3 | < 100 | CN(C)C/C=C/C(=O)N(C)c1cccc(-n2nc(-c3ccc(Cl)cc3)c3c(N)ncnc32)n1 [Example 31] | –
4 | < 100 | CN(C(=O)/C=C/CN(C)C1CC1)c1ccc(-n2nc(-c3ccc(Cl)cc3)c3c(N)ncnc32)cc1 [Example 32] | –
5 | < 100 | CCN(C/C=C/C(=O)N(C)c1ccc(-n2nc(-c3ccc(Cl)cc3)c3c(N)ncnc32)cc1)C1CC1 [Example 33] | –
6 | < 100 | CN(C(=O)/C=C/CN(C)C1CCC1)c1ccc(-n2nc(-c3ccc(Cl)cc3)c3c(N)ncnc32)cc1 [Example 34] | –
7 | < 100 | COc1cc(-c2nn(-c3cccc(NC(=O)/C=C/CN(C)C)c3)c3ncnc(N)c23)ccc1C [Example 35] | –
8 | < 100 | C=CC(=O)N1CC[C@@H](n2nc(-c3ccc(Cl)cc3)c3c(N)ncnc32)C1 [Example 36] | –
9 | < 100 | C=CC(=O)N(C)c1cccc(-n2nc(-c3ccc(C)c(OC)c3)c3c(N)ncnc32)c1 [Example 37] | –
10 | < 100 | COc1cc(-c2nn(-c3cccc(N(C)C(=O)/C=C/CN(C)C)c3)c3ncnc(N)c23)ccc1C [Example 38] | –
11 | < 100 | COc1cc(-c2nn(-c3ccc(N(C)C(=O)/C=C/CN(C)C4CCC4)cc3)c3ncnc(N)c23)ccc1C [Example 40] | –
12 | < 100 | COCCOc1ccc(-n2nc(-c3ccc(C)c(OC)c3)c3c(N)ncnc32)cc1NC(=O)/C=C/CN(C)C [Example 41] | –
13 | < 100 | COc1cc(-c2nn(-c3cccc(N(C)C(=O)/C=C/CN4CCOCC4)c3)c3ncnc(N)c23)ccc1C [Example 44] | –
14 | < 100 | COc1cc(-c2nn([C@@H]3CCCN(C(=O)/C=C/CN(C)C)C3)c3ncnc(N)c23)ccc1C [Example 45] | –
15 | < 100 | CN(C)C/C=C/C(=O)N1CCC[C@@H](n2nc(-c3ccc(Cl)cc3)c3c(N)ncnc32)C1 [Example 46] | –
16 | < 100 | CN(C)C/C=C/C(=O)N1CCC(n2nc(-c3ccc(Cl)cc3)c3c(N)ncnc32)CC1 [Example 47] | –
17 | < 100 | COc1cc(-c2nn(CC3CCN(C(=O)/C=C/CN(C)C)CC3)c3ncnc(N)c23)ccc1C [Example 48] | –
18 | < 100 | COc1cc(-c2nn(C[C@@H]3CCCN3C(=O)/C=C/CN(C)C)c3ncnc(N)c23)ccc1C [Example 49] | –
19 | < 100 | COc1cc(-c2nn(C[C@H]3CCCN3C(=O)/C=C/CN(C)C)c3ncnc(N)c23)ccc1C [Example 50] | –
20 | < 100 | CN(C)C/C=C/C(=O)N(C)c1cc(-n2nc(-c3ccc(Cl)cc3)c3c(N)ncnc32)ccc1F [Example 51] | –
21 | < 100 | COc1cc(-c2nn(-c3ccc(N(C)C(=O)/C=C/CN(C)C)c(Cl)c3)c3ncnc(N)c23)ccc1C [Example 52] | –
22 | < 100 | COc1cc(-c2nn(C3CCN(C(=O)/C=C/CN(C)C)CC3)c3ncnc(N)c23)ccc1C [Example 53] | –
23 | < 100 | COc1cc(-c2nn([C@@H]3CCN(C(=O)/C=C/CN(C)C)C3)c3ncnc(N)c23)c(F)cc1C [Example 54] | –
24 | < 100 | COc1cc(-c2nn(-c3cccc(N(C)C(=O)/C=C/CN(C)C)c3)c3ncnc(N)c23)c(F)cc1C [Example 55] | –
25 | < 100 | COc1cc(-c2nn(C3CCN(C(=O)/C=C/CN(C)C4CC4)CC3)c3ncnc(N)c23)ccc1C [Example 57] | –
26 | < 100 | COc1cc(-c2nn([C@H]3CC[C@@H](NC(=O)/C=C/CN(C)C4CC4)CC3)c3ncnc(N)c23)ccc1C [Example 59] | –

Row | IC50 (Btk) [nM] | SMILES | also measured
27 | < 100 | COc1cc(-c2nn([C@@H]3CCN(C(=O)/C=C/CN(C)C4CC4)C3)c3ncnc(N)c23)ccc1C [Example 60] | –
28 | < 100 | CN(C/C=C/C(=O)N1CC[C@@H](n2nc(-c3ccc(Cl)cc3)c3c(N)ncnc32)C1)C1CC1 [Example 61] | –
29 | < 100 | COc1cc(-c2nn(-c3ccc(N(C)C(=O)/C=C/CN(C)C)c(F)c3)c3ncnc(N)c23)ccc1C [Example 62] | –
30 | < 100 | COc1cc(-c2nn(-c3ccc(F)c(N(C)C(=O)/C=C/CN(C)C)c3)c3ncnc(N)c23)ccc1C [Example 63] | –
31 | < 100 | COc1cc(-c2nn(C3CN(C(=O)/C=C/CN(C)C)C3)c3ncnc(N)c23)ccc1C [Example 64] | –
32 | < 100 | CN(C)C/C=C/C(=O)N1CC(n2nc(-c3ccc(Cl)cc3)c3c(N)ncnc32)C1 [Example 65] | –
33 | < 100 | CN(C/C=C/C(=O)N1CC(n2nc(-c3ccc(Cl)cc3)c3c(N)ncnc32)C1)C1CC1 [Example 66] | –
34 | < 100 | COc1cc(-c2nn(C3CN(C(=O)/C=C/CN(C)C4CC4)C3)c3ncnc(N)c23)ccc1C [Example 67] | –
35 | < 100 | COc1cc(-c2nn(-c3ccc(N(C)C(=O)/C=C/CN(C)C4CC4)c(F)c3)c3ncnc(N)c23)ccc1C [Example 68] | –
36 | < 100 | CN(C(=O)/C=C/CN(C)C1CC1)c1cc(-n2nc(-c3ccc(Cl)cc3)c3c(N)ncnc32)ccc1F [Example 69] | –
37 | < 100 | COCCOc1ccc(-n2nc(-c3ccc(C)c(OC)c3)c3c(N)ncnc32)cc1N(C)C(=O)/C=C/CN(C)C [Example 70] | –
38 | < 100 | COc1cc(-c2nn(C[C@H]3CCN(C(=O)/C=C/CN(C)C)C3)c3ncnc(N)c23)ccc1C [Example 72] | –
39 | < 100 | COc1cc(-c2nn([C@H]3CC[C@@H](N(C)C(=O)/C=C/CN(C)C)CC3)c3ncnc(N)c23)ccc1C [Example 73] | –
40 | < 100 | COc1cc(-c2nn(-c3ccc(F)c(N(C)C(=O)/C=C/CN(C)C4CC4)c3)c3ncnc(N)c23)ccc1C [Example 76] | –
41 | < 100 | COc1cc(-c2nn(-c3ccc(OCC(C)(C)O)c(N(C)C(=O)/C=C/CN(C)C)c3)c3ncnc(N)c23)ccc1C [Example 77] | –
42 | < 100 | C=CC(=O)N1CCC(n2nc(-c3ccc(C)c(OC)c3)c3c(N)ncnc32)CC1 [Example 78] | –
43 | < 100 | C=CC(=O)N1CC(n2nc(-c3ccc(C)c(OC)c3)c3c(N)ncnc32)C1 [Example 79] | –
44 | < 100 | C=CC(=O)N1CCC(n2nc(-c3ccc(Cl)cc3)c3c(N)ncnc32)CC1 [Example 80] | –
45 | < 100 | C=CC(=O)N1CC(n2nc(-c3ccc(Cl)cc3)c3c(N)ncnc32)C1 [Example 81] | –
46 | < 100 | COc1cc(-c2nn(-c3ccc(N(C)S(=O)(=O)/C=C/CN(C)C)cc3)c3ncnc(N)c23)ccc1C [Example 82] | –
47 | < 100 | C=CC(=O)N1CC[C@@H](n2nc(-c3ccc(C)c(OC)c3)c3c(N)ncnc32)C1 [Example 83] | –
48 | < 100 | C=CC(=O)N1CCC[C@@H](n2nc(-c3ccc(C)c(OC)c3)c3c(N)ncnc32)C1 [Example 84] | –
49 | < 100 | C=CC(=O)N1CCC[C@@H](n2nc(-c3ccc(Cl)cc3)c3c(N)ncnc32)C1 [Example 85] | –
50 | < 100 | C=CC(=O)N1CC[C@@H](n2nc(-c3ccc(F)c(OC)c3)c3c(N)ncnc32)C1 [Example 85b] | –
51 | < 100 | C=CC(=O)N1CC[C@@H](n2nc(-c3ccc(F)cc3)c3c(N)ncnc32)C1 [Example 85c] | –
52 | < 100 | C=CC(=O)N1CC[C@@H](n2nc(-c3ccc(C)cc3)c3c(N)ncnc32)C1 [Example 85d] | –

— patent US9546172B2, “Pyrazolo[3,4-d]pyrimidine and pyrazolo[2,3-d]pyrimidine compounds as kinase inhibitors” (Pharmacyclics LLC, priority 2011, dated 2017)
